According to ChEMBL document CHEMBL4823289, “Conformational-Analysis-Guided Discovery of 2,3-Disubstituted Pyridine IDO1 Inhibitors” (ACS Med Chem Lett, 2021):

Tests used:
[1] = target: T1, Indoleamine 2,3-dioxygenase 1 (Homo sapiens, UniProt P14902); assay: Inhibition of IDO1 in IFNgamma-stimulated human HeLa cells preincubated for 2 hrs followed by recombinant human IFNgamma stimulation and measured after 18 hrs by fluorescence based microplate reader assay
[2] = target: Indoleamine 2,3-dioxygenase 1 (Mus musculus, UniProt P28776); assay: Inhibition of IDO1 in IFNgamma-stimulated mouse M109 cells preincubated for 2 hrs followed by recombinant murine IFNgamma stimulation and measured after 18 hrs by fluorescence based microplate reader assay; type: cell-based
Indoleamine 2,3-dioxygenase 1 (Mus musculus, UniProt P28776), sequence (P28776 whole entry): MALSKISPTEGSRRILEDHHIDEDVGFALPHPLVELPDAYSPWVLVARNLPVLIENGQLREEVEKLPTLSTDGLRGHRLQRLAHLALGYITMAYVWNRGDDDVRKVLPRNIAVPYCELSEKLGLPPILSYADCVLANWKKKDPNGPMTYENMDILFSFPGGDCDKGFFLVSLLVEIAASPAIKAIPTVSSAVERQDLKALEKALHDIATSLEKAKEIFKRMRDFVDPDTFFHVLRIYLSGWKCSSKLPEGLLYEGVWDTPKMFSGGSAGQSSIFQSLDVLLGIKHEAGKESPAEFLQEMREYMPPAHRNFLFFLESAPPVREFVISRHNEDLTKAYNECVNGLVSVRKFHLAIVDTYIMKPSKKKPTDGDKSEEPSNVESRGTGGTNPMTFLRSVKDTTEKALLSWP

[3] = Metabolic stability in human liver microsomes assessed as parent compound remaining at 0.5 uM after 10 mins incubation by LC-MS/MS analysis relative to control; type: ADME, Microsome; conditions: read-out: Activity
[4] = Metabolic stability in mouse liver microsomes assessed as parent compound remaining at 0.5 uM after 10 mins incubation by LC-MS/MS analysis relative to control; type: ADME, Microsome; conditions: read-out: Activity
[5] = Metabolic stability in rat liver microsomes assessed as parent compound remaining at 0.5 uM after 10 mins incubation by LC-MS/MS analysis relative to control; type: ADME, Microsome; conditions: read-out: Activity
[6] = target: T1, Indoleamine 2,3-dioxygenase 1; assay: Inhibition of IDO1 in IFNgamma/LPS-stimulated human whole blood preincubated for 4 hrs followed by IFNgamma/LPS stimulation and incubated for 18 hrs by Rapid-fire mass spectrometry analysis; type: tissue-based
[7] = Protein binding in human assessed as free fraction relative to control; type: ADME
[8] = Protein binding in mouse assessed as free fraction relative to control; type: ADME
[9] = AUC (0 to 24 hrs) in human SK-OV-3 cells xenografted in nu/nu mouse xenograft model measured in tumor at 60 mg/kg, po QD; type: ADME, organism-based; design: time < 24 hr, route oral, dose 60 mg/kg
[10] = target: Indoleamine 2,3-dioxygenase 1 (Mus musculus) (UniProt P28776); assay: In vivo inhibition of IDO1 in mouse xenografted with human SK-OV-3 cells assessed as reduction in tumor kynurenine AUEC at 60 mg/kg, po QD for 5 days measured up to 24 hrs after dosing relative to control; type: functional, organism-based; design: scale not given: the % may be the effect or the level left; conditions: time 5.0 day
Indoleamine 2,3-dioxygenase 1 (Mus musculus), sequence (P28776 whole entry, looked up): as the sequence (P28776 whole entry) above

T1 sequence (P14902 whole entry): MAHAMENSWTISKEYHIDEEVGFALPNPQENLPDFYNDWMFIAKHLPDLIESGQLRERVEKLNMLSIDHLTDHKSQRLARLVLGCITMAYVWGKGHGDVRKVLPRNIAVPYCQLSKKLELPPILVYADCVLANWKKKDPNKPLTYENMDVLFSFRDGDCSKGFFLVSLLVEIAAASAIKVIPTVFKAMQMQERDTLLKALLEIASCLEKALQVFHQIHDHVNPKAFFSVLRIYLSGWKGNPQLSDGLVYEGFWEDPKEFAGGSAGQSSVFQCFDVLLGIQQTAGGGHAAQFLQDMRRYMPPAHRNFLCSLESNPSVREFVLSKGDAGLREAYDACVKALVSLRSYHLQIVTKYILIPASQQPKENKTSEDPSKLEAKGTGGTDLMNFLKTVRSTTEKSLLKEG

Compound	IC50 [1] [nM]	IC50 [2] [nM]	remaining at 10 min, 0.5 µM [3] [%]	remaining at 10 min, 0.5 µM [4] [%]	remaining at 10 min, 0.5 µM [5] [%]	IC50 [6] [nM]	Activity [7] [%]	Activity [8] [%]	AUC at 24 h [9] [µM·h]	Activity [10] [%]
Cc1nccc([C@H]2CC[C@@H]([C@@H](C)NC(=O)c3ccc(Cl)cc3)CC2)c1C	4	6	30	3						
CC[C@@H](NC(=O)c1ccc(Cl)cc1)[C@H]1CC[C@H](c2cccc(=O)n2C)CC1	26	97	88	65						
CC[C@@H](NC(=O)c1ccc(Cl)cc1)[C@H]1CC[C@H](c2cccc(C)n2)CC1	48	121	56	8						
Cc1c(F)nccc1[C@H]1CC[C@@H]([C@@H](C)NC(=O)c2ccc(Cl)cc2)CC1	5	3	0	1	1	47				
CC[C@@H](NC(=O)c1ccc(Cl)cc1)[C@H]1CC[C@H](c2nccc(OC)n2)CC1	80	193	20	42						
CC[C@@H](NC(=O)c1ccc(Cl)cc1)[C@H]1CC[C@H](c2ccc(OC(F)F)cc2)CC1	14	75	94	90						
CC[C@@H](NC(=O)c1ccc(Cl)cc1)[C@H]1CC[C@@H](c2ccnc(OC)c2C)CC1	2	7	71	15	34	2.8				
CC[C@@H](NC(=O)c1ccc(Cl)cc1)[C@H]1CC[C@H](c2cncc(OC)c2)CC1	19	31	80	28						
CC[C@@H](NC(=O)c1ccc(Cl)cc1)[C@H]1CC[C@@H](c2cccnc2OC)CC1	475	> 1000	3	1						
CC[C@@H](NC(=O)c1ccc(Cl)cc1)[C@H]1CC[C@@H](c2ccnc(OC)c2F)CC1	3	22	68	15	21	11				
C[C@@H](NC(=O)c1ccc(Cl)cc1)[C@H]1CC[C@@H](c2ccnc3ccc(F)cc32)CC1							< 0.3	< 0.2		
CC[C@@H](NC(=O)c1ccc(Cl)cc1)[C@H]1CC[C@H](c2cccc(C(F)(F)F)n2)CC1	40	40	89	56						
Cc1cc([C@H]2CC[C@@H]([C@@H](C)NC(=O)c3ccc(Cl)cc3)CC2)ccn1	12	16	1	1						
Cc1cnccc1[C@H]1CC[C@@H]([C@@H](C)NC(=O)c2ccc(Cl)cc2)CC1	7	3	16	15						
COC[C@@H](NC(=O)c1ccc(Cl)cc1)[C@H]1CC[C@@H](c2ccnc(OC)c2C(F)F)CC1	2	11	68	15	35	4.1				
CC[C@@H](NC(=O)c1ccc(Cl)cc1)[C@H]1CC[C@@H](c2cccc3c2OC(F)(F)O3)CC1	43	196	0	0						
CC[C@@H](NC(=O)c1ccc(Cl)cc1)[C@H]1CC[C@@H](c2ccnc(OC)c2C(F)F)CC1	2	6	85	30	57	4.4				
C[C@@H](C(=O)Nc1ccc(Cl)cc1)[C@H]1CC[C@@H](c2ccnc3ccc(F)cc32)CC1									18	65
